According to US20080119408A1, “PTH FORMULATIONS FOR INTRANASAL DELIVERY” (NASTECH PHARMACEUTICAL COMPANY INC., priority 2006, published 2008):
Read-outs that look alike come from different tables or passages of the source. Ends that are not written are not given here.

Tests used:
[1] = tested on: EpiAirway Tissue Model (normal, human-derived tracheal/bronchial epithelial cells); experiment: Cytotoxicity, LDH assay (Example 3); type: cell-based; settings: 60-min samples
Experimental: (§1) Each tissue insert was placed in an individual well containing 1 ml media. On the apical surface of the inserts, 100 μl of test formulation was applied, and the samples were shaken for 1 h at 37° C. The underlying culture media samples were taken at 20, 40, and 60 minutes and stored at 4° C. for up to 48 hours for lactate dehydrogenase (LDH, cytotoxicity) and sample penetration (PTH HPLC evaluations). The 60-min samples were used for the lactate dehydrogenase (LDH, cytotoxicity) assay. Transepithelial electrical resistance (TER) was measured before and after the 1-h incubation. Following the incubation, the cell inserts were analyzed for cell viability via the mitochondrial dehydrogenase (MDH) assay.
The amount of cell death was assayed by measuring the loss of lactate dehydrogenase (LDH) from the cells using a CytoTox 96 Cytoxicity Assay Kit (Promega Corp., Madison, Wis.). LDH analysis of the apical media was evaluated. The appropriate amount of media was added to the apical surface in order to total 250 μL, taking into consideration the initial sample loading volume. The inserts was shaken for 5 minutes. 150 μL of the apical media was removed to eppendorf tubes and centrifuged at 10000 rpm for 3 minutes. […] Following incubation, 50 μl of stop solution was added to each well and the plates read on an optical density plate reader at 490 nm.

[2] = tested on: EpiAirway Tissue Model (normal, human-derived tracheal/bronchial epithelial cells); experiment: Transepithelial electrical resistance (TER), MatTek cell model (Examples 1-2); type: cell-based; settings: 1-h incubation, apical application
Experimental: The effect of various permeation enhancers on PTH formulations was measured in a MatTek cell model (MatTek, Corp. Ashland, Mass.). Three permeation enhancers (EDTA, ethanol, and polysorbate 80 (Tween 80)) were evaluated individually and in combination with one another. Sorbitol was used as a tonicifiers to adjust the osmolality of formulations to 220 mOsm/kg whenever applicable. The formulation pH was adjusted to ˜4.0. The permeation enhancer combination of 45 mg/ml Me-β-CD, 1 mg/ml DDPC, and 1 mg/ml EDTA at pH 4.5 served as the positive control. The formulation containing sorbitol only was used as the negative control. Each formulation was evaluated in the presence and absence of preservative. […]
Each tissue insert was placed in an individual well containing 1 ml media. […] Transepithelial electrical resistance (TER) was measured before and after the 1-h incubation. Following the incubation, the cell inserts were analyzed for cell viability via the mitochondrial dehydrogenase (MDH) assay.
TER measurements were accomplished using the Endohm-12 Tissue Resistance Measurement Chamber connected to the EVOM Epithelial Voltammeter (World Precision Instruments, Sarasota, Fla.) with the electrode leads. […] The background resistance was measured with 1.5 ml Media in the Endohm tissue chamber and 300 μl Media in the blank insert. […] Resistance was expressed as (resistance measured−blank)×0.6 cm^2. […]

[3] = tested on: EpiAirway Tissue Model (normal, human-derived tracheal/bronchial epithelial cells); experiment: Cell viability, MTT assay (Example 3); type: cell-based; settings: after 1-h incubation
Experimental: as §1
Cell viability was assessed using the MTT assay (MTT-100, MatTek kit). Thawed and diluted MTT concentrate was pipetted (300 μl) into a 24-well plate. Tissue inserts were gently dried, placed into the plate wells, and incubated at 37° C. for 3 hours. After incubation, each insert was removed from the plate, blotted gently, and placed into a 24-well extraction plate. The cell culture inserts were immersed in 2.0 ml of the extractant solution per well (to completely cover the sample). The extraction plate was covered and sealed to reduce evaporation of extractant. […] The optical density of the samples was measured at 550 nm on a plate reader.

[4] = 13-week intranasal toxicity and toxicokinetics in dogs; type: in vivo; settings: both sexes, beagle, dog, in vivo, sc, 6 μg/kg/day; dogs, subcutaneous injection; read-out: Tmax for PTH1-34
Experimental: (§2) Toxicity and toxiokinetics of PTH1-34 was studied after administration of PTH1-34 once daily by intranasal instillation to dogs for at least 13 weeks. One additional group received recombinant PTH1-34 by subcutaneous injection for comparison.
(§3) Male and female beagles were assigned among six study groups. Animals assigned to groups 1 through 5 received an intranasal installation of a negative control (0.9% Sodium Chloride for Injection, USP), 40 or 80 μg/kg of body weight/day (μg/kg/day) PTH1-34 (synthetic form) in the PTH-072 formulation (Example 10, Table 22), or 80 or 200 μg/kg/day PTH1-34 (synthetic form) in the PTH-074-1 formulation (Example 10, Table 22).
(§4) Results were collected for mortality, clinical signs, gross nasal passage observations, ophthalmic findings, electrocardiogram measurements, blood pressure and heart rate differences, body weights, food consumption, clinical and anatomic pathology, and toxicokinetic evaluations. All animals in the study survived to scheduled necropsy. […] The nasal cavity was sectioned such that meaningful regions of the cavity were represented, and the soft (e.g., epithelial lining) or hard tissues (e.g., bone and cartilage based structures) of the nasal cavity were examined.

beagles = experiment: as above; type: in vivo
Experimental: as §2, §3, §4

MatTek in vitro system = experiment: Chlorobutanol permeation study of API formulations (PTH, Calcitonin), MatTek in vitro system, ELISA; type: cell-based; settings: CB 0-5 mg/mL
Experimental: Chlorobutanol (CB) was added to API formulations (PTH and Calcitonin) to test permeation in the MatTek in vitro system. CB was tested at varying concentrations (0, 1.25, 2.5, 3.75 and 5 mg/mL) in 10 mM citrate buffer, pH 4.0 and adjusted for a final target osmolality of 220 mOsm with sorbitol. Calcitonin and PTH were added at 2 mg/mL in each of the respective control or test formulations (n=6 insert per formulation). 1 mL of each formulation was placed into silanized 3 cc vials. A 0.1 mL volume of a 20× stock of one of the API compounds was added to 0.9 mL of 1.1× concentrated diluent form of each of the CB formulations to make the unique formulations.

[5] = 13-week intranasal toxicity and toxicokinetics in rats; type: in vivo, rat; settings: Crl:CD(SD), rat, in vivo, sc, 25 μg/kg/day, female rats, administered by injection (subcutaneous)
Experimental: (§5) Toxicity and toxicokinetics of PTH1-34 formulations were evaluated in male and female Crl:CD(SD) rats. PTH1-34 (synthetic form) was administered once daily via intranasal instillation to rats for at least 13 weeks. For comparison, one group received commercially available recombinant PTH1-34 via subcutaneous injection. Assessment of toxicity was based on mortality, clinical observations, ophthalmic examinations, body weights, food consumption, clinical and anatomic pathology, and toxicokinetic evaluations. Two synthetic PTH1-34 formulations were used in the study, PTH-072-1 and PTH-074 at low and high doses (formulations are shown in Table 22).
(§6) Doses in rats were determined for body weight, body surface area, and nasal surface area. Representative concentrations of PTH1-34 for clinical studies were considered to be 1.5 mg/mL and 3.0 mg/mL (and a dose volume of 100 μL). For the lower concentration, a 70 kg human would receive a dose of 2.1 μg/kg based on body weight. At the higher dose a human would receive a dose of 4.3 μg/kg based on body weight.

Crl:CD(SD) rats = experiment: as above; type: in vivo, rat
Experimental: as §5, §6

[6] = anesthetized rats, cited from earlier work

Compound: Triton X
- cytotoxicity (LDH) [1]: significant cytotoxicity
- TER reduction [2]: significant TER reduction
- cell viability (MTT) [3]: significant reduction of cell viability

Compound: CC[C@H](C)[C@H](NC(=O)[C@H](CCC(=O)O)NC(=O)[C@H](CO)NC(=O)[C@@H](NC(=O)[C@@H](N)CO)C(C)C)C(=O)N[C@@H](CCC(N)=O)C(=O)N[C@@H](CC(C)C)C(=O)N[C@@H](CCSC)C(=O)N[C@@H](Cc1cnc[nH]1)C(=O)N[C@@H](CC(N)=O)C(=O)N[C@@H](CC(C)C)C(=O)NCC(=O)N[C@@H](CCCCN)C(=O)N[C@@H](Cc1cnc[nH]1)C(=O)N[C@@H](CC(C)C)C(=O)N[C@@H](CC(N)=O)C(=O)N[C@@H](CO)C(=O)N[C@@H](CCSC)C(=O)N[C@@H](CCC(=O)O)C(=O)N[C@@H](CCCN=C(N)N)C(=O)N[C@H](C(=O)N[C@@H](CCC(=O)O)C(=O)N[C@@H](Cc1c[nH]c2ccccc12)C(=O)N[C@@H](CC(C)C)C(=O)N[C@@H](CCCN=C(N)N)C(=O)N[C@@H](CCCCN)C(=O)N[C@@H](CCCCN)C(=O)N[C@@H](CC(C)C)C(=O)N[C@@H](CCC(N)=O)C(=O)N[C@@H](CC(=O)O)C(=O)N[C@H](C(=O)N[C@@H](Cc1cnc[nH]1)C(=O)N[C@@H](CC(N)=O)C(=O)N[C@@H](Cc1ccccc1)C(=O)O)C(C)C)C(C)C [PTH1-34, teriparatide]
- Tmax [4]: 13 to 26 min
- histologic changes in nasal tissues (beagles; dog, in vivo): no histologic changes in nasal tissues
- trabecular bone in femur and sternum (beagles; dogs dosed subcutaneously or intranasally at the high dose): minimally thickened trabecular bone
- AUClast greater in the dog than in humans at representative doses (beagles; dogs vs humans): ≥ 10 fold
- Cmax greater in the dog than in humans at representative doses (beagles; dogs vs humans): at least 7 fold
- clinical signs, ophthalmic findings, ECG, blood pressure, heart rate, body weights, food consumption (beagles; dogs, 13 weeks): No PTH1-34 related clinical signs, ophthalmic findings, electrocardiogram differences, blood pressure and heart rate differences, body weights, or food consumption changes were noted
- effect of addition of CB on permeation of the API (MatTek in vitro system): enhanced permeation
- Cmax [5]: 7.72 to 12.2 ng/mL
- Tmax [5]: 5 min
- half-life ([5]; read-out: t1/2 for PTH1-34): 15 to 23 min
- trabecular bone in femur and sternum (Crl:CD(SD) rats; female rats, 25 μg/kg/day SQ, 200 μg/kg/day PTH-072-1, 500 μg/kg/day PTH-074-1 intranasally): thickened trabecular bone
- changes in nasal turbinate tissues (Crl:CD(SD) rats; rats, 13 weeks intranasal): No changes considered to be attributable to the intranasal administration of PTH1-34 were observed
- clinical signs, ophthalmic observations, body weight, food consumption (Crl:CD(SD) rats; rats, 13 weeks, regardless of route, dose level or formulation): No PTH1-34 related clinical signs, ophthalmic observations, body weight changes, or food consumption changes were observed

Compound: Calcitonin (CGNLSTCMLGTYTQDFNKFHTFPQTAIGVGAP; ends and bridges not checked; cysteine pairing not given here; UniProt P01258 85-116, looked up) [peptide API tested for CB permeation enhancement]
- effect of addition of CB on permeation of the API (MatTek in vitro system): failed to enhance permeation

Compound: human growth hormone: protein whose nasal bioavailability in rats was reported raised by N-acetyl-L-cysteine
- nasal bioavailability of human growth hormone ([6]; with N-acetyl-L-cysteine): 12.2%
- nasal bioavailability of human growth hormone ([6]; without N-acetyl-L-cysteine): 7.5%
